IC50 data for seven compounds are collected here from patent US20250000989A1, “PYRROLO BENZODIAZEPINE DERIVATIVE, AND CONJUGATE, PREPARATION METHOD AND USE THEREOF” (priority 2021, published 2025).

Assay in all cases: Inhibition of in vitro proliferation of tumor cells by PBD compounds (CTG)
Common to all, as to assay type: cell-based

For assay [1], the system named is NCI-H23 (human non-small cell lung cancer cells). The settings on record: 144 h, 6 days of culture. The method, then: (§1) The objective of this assay is to measure the activity of the compounds of the present disclosure in inhibiting the proliferation of different tumor cell lines: SK-BR-3 tumor cells (human breast cancer cells, ATCC, Cat. No. HTB-30), NCI-H23 (human non-small cell lung cancer cells, Nanjing Cobioer, Cat. No. CBP60132), and MKN45 (human gastric cancer cells, Nanjing Cobioer, Cat. No. CBP60488). The cells were treated in vitro with different concentrations of the compounds. After 6 days of culture, the proliferation of the cells was measured using CTG (CellTiter-Glo® Luminescent Cell Viability Assay, Promega, Cat. No. G7573) reagent, and the in vitro activity of the compounds was evaluated based on their IC50 values.
(§2) • 1. Cell culture: SK-BR-3, NCI-H23, and MKN45 cells were separately cultured in McCoy's 5A medium (ThermoFisher, Cat. No. 16600108) and RPMI 1640 medium (ThermoFisher, Cat. No. 11875119) containing 10% FBS (Gibco, 10099-141). • 2. Cell plating: After being digested with trypsin (0.25% Trypsin-EDTA (1×), Life Technologies, Cat. No. 25200-072), the SK-BR-3, NCI-H23, and MKN45 were resuspended in their respective media and counted. The density was adjusted to 1.48×10^4 cells/mL, and the cells were plated onto 96-well plates (corning, Cat. No. 3903) at 135 μL/well, i.e., 2000 cells/well, and cultured at 37° C. for 24 h. • 3. Drug formulation: PBD drugs were formulated in round-bottom 96-well plates. Plate 1: In the first column, the concentration was 0.05 mM; in the second column through the fourth column, a 3-fold serial dilution was performed in DMSO; in the fifth column through the sixth column, a 5-fold serial dilution was performed in DMSO; in the seventh column through the ninth column, a 10-fold serial dilution was performed in DMSO; and the tenth column contained DMSO. Plate 2: Corresponding media were added to the first column through the tenth column at 196 μL/well; 4 μL of solution was transferred from each well of the first column through the tenth column of plate 1 to plate 2 and well mixed with the medium; 15 μL of the mixture was added to the cells plated the day before, and the cells were cultured at 37° C. for another 6 days. • 4. CTG assay: The cell culture plates were taken out and equilibrated to room temperature. CTG was added at 75 μL/well, and the plates were incubated at room temperature in the dark for 10 min. Then luminescence values were measured on a microplate reader (BMG labtech, PHERAstar FS).

Assay [2] deals with SK-BR-3 tumor cells (human breast cancer cells). To be noted: 144 h, 6 days of culture. The method, then: as §1, §2
The subject of assay [3] is MKN45 (human gastric cancer cells). To be noted: MKN-45, 144 h, 6 days of culture. How it is done: as §1, §2

As to `COc1cc2c(cc1OCCCCCOc1cc3c(cc1OC)C(=O)N1C=C(c4ccc(C5CCN(C(C)=O)CC5)cc4)C[C@H]1CN3)N=C[C@@H]1CC3(CC3)CN1C2=O` [2-11, (S)-8-((5-(((S)-2-(4-(1-Acetylpiperidin-4-yl)phenyl)-7-methoxy-5-oxo-5,10,11,11a-tetrahydro-1H-benzo[e]pyrrolo[1,2-a][1,4]diazepin-8-yl)oxy)pentyl)oxy)-7-methoxy-1,11a-dihydro-3H,5H-spiro[benzo[e]pyrrolo[1,2-a][1,4]diazepine-2,1′-cyclopropan]-5-one], the IC50 in assay [1] was 0.11 nM; in assay [2], 0.32 nM; in assay [3], 0.69 nM.
The corresponding values for `COc1ccc(C2=CN3C(=O)c4cc(OC)c(OCC5(CCCOc6cc7c(cc6OC)C(=O)N6CC8(CC8)C[C@H]6C=N7)CC5)cc4NC[C@@H]3C2)cc1` [2-13, (S)-7-Methoxy-8-(3-(1-((((S)-7-methoxy-2-(4-methoxyphenyl)-5-oxo-5,10,11,11a-tetrahydro-1H-benzo[e]pyrrolo[1,2-a][1,4]diazepin-8-yl)oxy)methyl)cyclopropyl)propoxy)-1,11a-dihydro-3H,5H-spiro[benzo[e]pyrrolo[1,2-a][1,4]diazepine-2,1′-cyclopropan]-5-one] are 1.42 nM, 1.64 nM and 4.35 nM.
The corresponding values for `COc1cc2c(cc1OCCCCCOc1cc3c(cc1OC)C(=O)N1C=C(c4ccc(SC5CCC5)cc4)C[C@H]1CN3)N=C[C@@H]1CC3(CC3)CN1C2=O` [2-35, (S)-8-((5-(((S)-2-(4-(Cyclobutylthio)phenyl)-7-methoxy-5-oxo-5,10,11,11a-tetrahydro-1H-benzo[e]pyrrolo[1,2-a][1,4]diazepin-8-yl)oxy)pentyl)oxy)-7-methoxy-1,11a-dihydro-3H,5H-spiro[benzo[e]pyrrolo[1,2-a][1,4]diazepine-2,1′-cyclopropan]-5-one] are 0.84 nM, 1.7 nM and 2.73 nM.
For `COc1cc2c(cc1OCCCCCOc1cc3c(cc1OC)C(=O)N1C=C(c4ccc(N5CCN(CCO)CC5)cc4)C[C@H]1CN3)N=C[C@@H]1CC3(CC3)CN1C2=O` [2-30, (S)-8-((5-(((S)-2-(4-(4-(2-Hydroxyethyl)piperazin-1-yl)phenyl)-7-methoxy-5-oxo-5,10,11,11a-tetrahydro-1H-benzo[e]pyrrolo[1,2-a][1,4]diazepin-8-yl)oxy)pentyl)oxy)-7-methoxy-1,11a-dihydro-3H,5H-spiro[benzo[e]pyrrolo[1,2-a][1,4]diazepine-2,1′-cyclopropan]-5-one], the IC50 stood at 0.02 nM in assay [1], 0.21 nM in assay [2] and 0.04 nM in assay [3].
The corresponding values for `COc1cc2c(cc1OCCCCCOc1cc3c(cc1OC)C(=O)N1C=C(c4ccc(-n5nccn5)cc4)C[C@H]1CN3)N=C[C@@H]1CC3(CC3)CN1C2=O` [2-7, (S)-8-((5-(((S)-2-(4-(2H-1,2,3-Triazol-2-yl)phenyl)-7-methoxy-5-oxo-5,10,11,11a-tetrahydro-1H-benzo[e]pyrrolo[1,2-a][1,4]diazepin-8-yl)oxy)pentyl)oxy)-7-methoxy-1,11a-dihydro-3H,5H-spiro[benzo[e]pyrrolo[1,2-a][1,4]diazepine-2,1′-cyclopropan]-5-one] are 0.04 nM, 0.08 nM and 0.07 nM.
The corresponding values for `COc1cc2c(cc1OCCCCCOc1cc3c(cc1OC)C(=O)N1C=C(c4ccc(C5CCN(C(=O)CO)CC5)cc4)C[C@H]1CN3)N=C[C@@H]1CC3(CC3)CN1C2=O` [2-10, (S)-8-((5-(((S)-2-(4-(1-(2-Hydroxyacetyl)piperidin-4-yl)phenyl)-7-methoxy-5-oxo-5,10,11,11a-tetrahydro-1H-benzo[e]pyrrolo[1,2-a][1,4]diazepin-8-yl)oxy)pentyl)oxy)-7-methoxy-1,11a-dihydro-3H,5H-spiro[benzo[e]pyrrolo[1,2-a][1,4]diazepine-2,1′-cyclopropan]-5-one] are 0.2 nM, 0.63 nM and 0.61 nM.
The corresponding values for `COc1cc2c(cc1OCCCCCOc1cc3c(cc1OC)C(=O)N1C=C(c4ccc(C5CCN(C)CC5)cc4)C[C@H]1CN3)N=C[C@@H]1CC3(CC3)CN1C2=O` [2-6, (S)-7-Methoxy-8-((5-(((S)-7-methoxy-2-(4-(1-methylpiperidin-4-yl)phenyl)-5-oxo-5,10,11,11a-tetrahydro-1H-benzo[e]pyrrolo[1,2-a][1,4]diazepin-8-yl)oxy)pentyl)oxy)-1,11a-dihydro-3H,5H-spiro[benzo[e]pyrrolo[1,2-a][1,4]diazepine-2,1′-cyclopropan]-5-one] are 0.03 nM, 0.24 nM and 0.06 nM.

The IC50 is the midpoint of a concentration-inhibition curve.
